Assay results as given in patent US20230365592A1 (Agios Pharmaceuticals, Inc., priority 2022, published 2023).

biological target: T1, human PAH with the R408W mutation (Homo sapiens, UniProt P00439, R408W); test: Cell Based Phenylalanine Flux Assay; details: A375 cells expressing R408W PAH; 24 hrs with compound, then 20 µM sepiapterin and 800 µM 13C9,15N-Phenylalanine for 4 hours; 13C-Tyrosine by LC-MS; average where tested multiple times; read-out: AC50;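 note: after compound treatment, cells received sepiapterin plus isotope-labelled Phenylalanine for 4 hours, then labelled Tyrosine in the medium was quantified, 10-point 2-fold dilution series run in duplicate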
T1 construct: expressed in transfected cells
T1 sequence (P00439 1-452 R408W): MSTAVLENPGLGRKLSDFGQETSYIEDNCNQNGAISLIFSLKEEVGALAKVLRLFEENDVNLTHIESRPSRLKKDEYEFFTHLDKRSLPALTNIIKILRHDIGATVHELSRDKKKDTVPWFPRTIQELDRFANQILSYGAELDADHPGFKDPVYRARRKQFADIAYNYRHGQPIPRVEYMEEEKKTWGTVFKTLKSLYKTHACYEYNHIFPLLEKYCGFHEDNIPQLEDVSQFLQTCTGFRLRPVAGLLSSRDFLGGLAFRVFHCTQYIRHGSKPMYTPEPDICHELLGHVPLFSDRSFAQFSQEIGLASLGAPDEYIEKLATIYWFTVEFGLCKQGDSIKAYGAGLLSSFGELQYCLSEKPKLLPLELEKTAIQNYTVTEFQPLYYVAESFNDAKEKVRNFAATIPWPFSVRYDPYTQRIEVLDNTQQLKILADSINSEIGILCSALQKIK

AC50 [µM] | SMILES
> 5 | Cc1nc(C(=O)N2CCc3[nH]cnc3C2c2cc3cccc(C(F)(F)F)n3n2)n(C)n1 (stereo not drawn)
> 5 | Cc1ccn2nc(C3c4nc[nH]c4CCN3C(=O)c3nnc(C(C)(C)O)o3)cc2c1 (stereo not drawn)

SMILES | AC50 [µM]
Fc1ccc(-c2nnc(N3CCc4[nH]cnc4[C@@H]3c3cc4ccccn4n3)o2)nc1 (single isomer, unassigned) | > 5

same assay, conditions: A375 cells expressing human PAH R408W; 24 hrs compound incubation; 13C-Tyrosine by LC-MS; average where tested multiple times; read-out: AC50

AC50 [µM] | SMILES
> 5 | FC(F)c1nnc(N2CCc3[nH]cnc3[C@@H]2c2cc3cccc(C(F)F)n3n2)o1 [Example 2220, (R)-2-(difluoromethyl)-5-(4-(7-(difluoromethyl)pyrazolo[1,5-a]pyridin-2-yl)-1,4,6,7-tetrahydro-5H-imidazo[4,5-c]pyridin-5-yl)-1,3,4-oxadiazole]

same assay, conditions: A375 cells expressing human R408W PAH; 24 hrs compound incubation; 13C-Tyrosine by LC-MS; average where tested multiple times; read-out: AC50

SMILES | AC50 [µM]
O=C(c1ocnc1C(F)F)N1CCc2[nH]cnc2[C@H]1c1cc2ccccn2n1 [Example 630, (S)-(4-(difluoromethyl)oxazol-5-yl)(4-(pyrazolo[1,5-a]pyridin-2-yl)-6,7-dihydro-1H-imidazo[4,5-c]pyridin-5(4H)-yl)methanone] | < 0.5
O=C(c1nnc(-c2ncccc2F)o1)N1CCc2[nH]cnc2[C@@H]1c1cc2cccc(C(F)(F)F)n2n1 [Example 1035, (R)-(5-(3-fluoropyridin-2-yl)-1,3,4-oxadiazol-2-yl)(4-(7-(trifluoromethyl)pyrazolo[1,5-a]pyridin-2-yl)-6,7-dihydro-1H-imidazo[4,5-c]pyridin-5(4H)-yl)methanone] | > 5
O=C(c1nnc(-c2ccncc2)o1)N1CCc2[nH]cnc2[C@H]1c1cc2c(F)cccn2n1 [Example 830, (S)-(4-(4-fluoropyrazolo[1,5-a]pyridin-2-yl)-6,7-dihydro-1H-imidazo[4,5-c]pyridin-5(4H)-yl)(5-(pyridin-4-yl)-1,3,4-oxadiazol-2-yl)methanone] | < 0.5
Cc1c(-c2nnc(C(=O)N3CCc4[nH]cnc4[C@@H]3c3cc4cccc(C(F)(F)F)n4n3)o2)cnn1C [Example 1191, (R)-(5-(1,5-dimethyl-1H-pyrazol-4-yl)-1,3,4-oxadiazol-2-yl)(4-(7-(trifluoromethyl)pyrazolo[1,5-a]pyridin-2-yl)-6,7-dihydro-1H-imidazo[4,5-c]pyridin-5(4H)-yl)methanone] | 1 to 5
CC(C)(F)c1nnc(C(=O)N2CCc3[nH]cnc3[C@@H]2c2cc3cccc(Cl)n3n2)o1 [Example 968, (R)-(4-(7-chloropyrazolo[1,5-a]pyridin-2-yl)-6,7-dihydro-1H-imidazo[4,5-c]pyridin-5(4H)-yl)(5-(2-fluoropropan-2-yl)-1,3,4-oxadiazol-2-yl)methanone] | 1 to 5
Cc1cccn2nc([C@@H]3c4nc[nH]c4CCN3C(=O)c3nnc(N4CCC(F)CC4)o3)cc12 [Example 1012, (S)-(5-(4-fluoropiperidin-1-yl)-1,3,4-oxadiazol-2-yl)(4-(4-methylpyrazolo[1,5-a]pyridin-2-yl)-6,7-dihydro-1H-imidazo[4,5-c]pyridin-5(4H)-yl)methanone] | 0.5 to 1
O=C(CC1CC1)N1CCc2[nH]cnc2[C@H]1c1cc2ccccn2n1 [Example 614, (S)-2-cyclopropyl-1-(4-(pyrazolo[1,5-a]pyridin-2-yl)-6,7-dihydro-1H-imidazo[4,5-c]pyridin-5(4H)-yl)ethanone] | < 0.5
Cn1nccc1-c1nnc(C(=O)N2CCc3[nH]cnc3[C@@H]2c2cc3c(F)cccn3n2)o1 [Example 1019, (R)-(4-(4-fluoropyrazolo[1,5-a]pyridin-2-yl)-6,7-dihydro-1H-imidazo[4,5-c]pyridin-5(4H)-yl)(5-(1-methyl-1H-pyrazol-5-yl)-1,3,4-oxadiazol-2-yl)methanone] | > 5
CC(C)(O)c1nc(C(F)F)c(C(=O)N2CCc3[nH]cnc3[C@H]2c2cc3c(Cl)cccn3n2)o1 [Example 700, (S)-(4-(4-chloropyrazolo[1,5-a]pyridin-2-yl)-6,7-dihydro-1H-imidazo[4,5-c]pyridin-5(4H)-yl)(4-(difluoromethyl)-2-(2-hydroxypropan-2-yl)oxazol-5-yl)methanone] | < 0.5
Cc1cnn(C)c1-c1nnc(C(=O)N2CCc3[nH]cnc3[C@H]2c2cc3c(F)cccn3n2)o1 [Example 928, (S)-(5-(1,4-dimethyl-1H-pyrazol-5-yl)-1,3,4-oxadiazol-2-yl)(4-(4-fluoropyrazolo[1,5-a]pyridin-2-yl)-6,7-dihydro-1H-imidazo[4,5-c]pyridin-5(4H)-yl)methanone] | < 0.5
Cc1cccn2nc([C@H]3c4nc[nH]c4CCN3C(=O)c3oc(-c4cncn4C)nc3C(F)F)cc12 [Example 890, (R)-(4-(difluoromethyl)-2-(1-methyl-1H-imidazol-5-yl)oxazol-5-yl)(4-(4-methylpyrazolo[1,5-a]pyridin-2-yl)-6,7-dihydro-1H-imidazo[4,5-c]pyridin-5(4H)-yl)methanone] | > 5
O=C(c1nnc(-c2ccn(C(F)F)n2)o1)N1CCc2[nH]cnc2[C@H]1c1cc2cccc(Cl)n2n1 [Example 964, (S)-(4-(7-chloropyrazolo[1,5-a]pyridin-2-yl)-6,7-dihydro-1H-imidazo[4,5-c]pyridin-5(4H)-yl)(5-(1-(difluoromethyl)-1H-pyrazol-3-yl)-1,3,4-oxadiazol-2-yl)methanone] | < 0.5
Cc1ncoc1C(=O)N1CCc2[nH]cnc2[C@@H]1c1cc2c(C)cccn2n1 [Example 771, (R)-(4-methyloxazol-5-yl)(4-(4-methylpyrazolo[1,5-a]pyridin-2-yl)-6,7-dihydro-1H-imidazo[4,5-c]pyridin-5(4H)-yl)methanone] | 1 to 5
Cc1cccn2nc([C@@H]3c4nc[nH]c4CCN3C(=O)c3ccnn3C3CC3)cc12 [Example 860, (S)-(1-cyclopropyl-1H-pyrazol-5-yl)(4-(4-methylpyrazolo[1,5-a]pyridin-2-yl)-6,7-dihydro-1H-imidazo[4,5-c]pyridin-5(4H)-yl)methanone] | < 0.5
Cc1c(-c2nnc(C(=O)N3CCc4[nH]cnc4[C@@H]3c3cc4cccc(C)n4n3)o2)cnn1C [Example 1189, (R)-(5-(1,5-dimethyl-1H-pyrazol-4-yl)-1,3,4-oxadiazol-2-yl)(4-(7-methylpyrazolo[1,5-a]pyridin-2-yl)-6,7-dihydro-1H-imidazo[4,5-c]pyridin-5(4H)-yl)methanone] | 1 to 5

The next lines start with the values.

AC50 [µM] | SMILES
0.5 to 1 | O=C(c1nnc(C2CC(F)(F)C2)o1)N1CCc2[nH]cnc2[C@H]1c1cc2c(C(F)F)cccn2n1 [Example 1602, (S)-(5-(3,3-difluorocyclobutyl)-1,3,4-oxadiazol-2-yl)(4-(4-(difluoromethyl)pyrazolo[1,5-a]pyridin-2-yl)-6,7-dihydro-1H-imidazo[4,5-c]pyridin-5(4H)-yl)methanone]
< 0.5 | CC(C)(F)c1nc(C(F)F)c(C(=O)N2CCc3[nH]cnc3[C@H]2c2cc3ccccn3n2)o1 [Example 1255, (S)-(4-(difluoromethyl)-2-(2-fluoropropan-2-yl)oxazol-5-yl)(4-(pyrazolo[1,5-a]pyridin-2-yl)-6,7-dihydro-1H-imidazo[4,5-c]pyridin-5(4H)-yl)methanone]
1 to 5 | CC(C)(O)c1nc(C(F)F)c(C(=O)N2CCc3[nH]cnc3[C@@H]2c2cc3cccc(F)n3n2)o1 [Example 1239, (R)-(4-(difluoromethyl)-2-(2-hydroxypropan-2-yl)oxazol-5-yl)(4-(7-fluoropyrazolo[1,5-a]pyridin-2-yl)-6,7-dihydro-1H-imidazo[4,5-c]pyridin-5(4H)-yl)methanone]
0.5 to 1 | O=C(c1nnc(C2CC(F)(F)C2)o1)N1CCc2[nH]cnc2[C@H]1c1cc2c(F)cccn2n1 [Example 1604, (S)-(5-(3,3-difluorocyclobutyl)-1,3,4-oxadiazol-2-yl)(4-(4-fluoropyrazolo[1,5-a)pyridin-2-yl)-6,7-dihydro-1H-imidazo[4,5-c]pyridin-5(4H)-yl)methanone]
< 0.5 | CC(C)c1nnc(C(=O)N2CCc3[nH]cnc3[C@H]2c2cc3cccc(Cl)n3n2)o1 [Example 1488, (S)-(4-(7-chloropyrazolo[1,5-a]pyridin-2-yl)-6,7-dihydro-1H-imidazo[4,5-c]pyridin-5(4H)-yl)(5-isopropyl-1,3,4-oxadiazol-2-yl)methanone]
< 0.5 | CC1(c2nnc(C(=O)N3CCc4[nH]cnc4[C@H]3c3cc4c(Cl)cccn4n3)o2)CC1 [Example 1321, (S)-(4-(4-chloropyrazolo[1,5-a]pyridin-2-yl)-6,7-dihydro-1H-imidazo[4,5-c]pyridin-5(4H)-yl)(5-(1-methylcyclopropyl)-1,3,4-oxadiazol-2-yl)methanone]
> 5 | Fc1cccn2nc([C@H]3c4nc[nH]c4CCN3c3nnc(-c4ccccn4)o3)cc12 [Example 1612, (R)-2-(4-(4-fluoropyrazolo[1,5-a]pyridin-2-yl)-6,7-dihydro-1H-imidazo[4,5-c]pyridin-5(4H)-yl)-5-(pyridin-2-yl)-1,3,4-oxadiazole]
< 0.5 | O=C(c1nnc(-c2ncccc2F)o1)N1CCc2[nH]cnc2[C@H]1c1cc2cccc(C(F)F)n2n1 [Example 1580, (S)-(4-(7-(difluoromethyl)pyrazolo[1,5-a]pyridin-2-yl)-6,7-dihydro-1H-imidazo[4,5-c]pyridin-5(4H)-yl)(5-(3-fluoropyridin-2-yl)-1,3,4-oxadiazol-2-yl)methanone]
